The values below come from patent US9314472B2, “Treatment and prevention of mastitis” (BRIGHAM YOUNG UNIVERSITY, priority 2012, dated 2016).

Molecules are shown by their SMILES. Where a name gives a salt, the structure may show the parent alone.

Series [1] concerns coagulase-negative staphylococci, Streptococcus dysgalactae, and Eshcherica coli. The settings on record: from Freedom Of Information Summary NADA 141-238, sterile suspension of ceftiofur hydrochloride; cited from earlier work.
For another series, the system named is gram positive bacteria. In words: CSA-44/saline formulation study, intramammary treatment of clinical mastitis, gram positive. The class given is in vivo, lactating dairy cattle. To be noted: CSA-44 120 mg x3 or cephapirin sodium 200 mg x2 intramammary, 11 days post-treatment. The method, then: (§1) A second dose characterization study was conducted using a non-final (saline) formulation of CSA-44 hydrochloride. The study enabled the selection of a dose to be used in the dose confirmation (field) study, which was conducted using the saline formulation of CSA-44 hydrochloride.
(§2) The objective of this study was to evaluate the effectiveness of intramammary administered CSA-44, as a saline based formulation, for the treatment of clinical mastitis in lactating dairy cows.
(§3) The objective was to evaluate the effectiveness of intramammary infusion of CSA-44 hydrochloride sterile suspension three times at a 24-hour interval at 120.0 mg dosage in the affected quarter in comparison to a negative control or 200 mg of cephapirin sodium activity in a stable peanut oil gel for the treatment of clinical mastitis in lactating dairy cattle.
(§4) A total of 151 cows from 2 herds were enrolled. Cows were enrolled in the study when they had visually abnormal milk (clots, flakes, or watery secretion) or if udder swelling, heat, pain or redness were present and milk was not yet visually abnormal, but the California Mastitis Test (CMT) gave results of 2 or greater. A pre-treatment milk sample was obtained from each affected quarter(s) and cultured for the presence of organisms associated with mastitis; the culture data were not available prior to treatment assignments.
(§5) Cows were assigned in blocks of three to receive either 120 mg CSA-44 HCl, 200 mg cephapirin sodium, or no treatment. Enrollment was restricted to cows with one quarter affected with clinical mastitis.
(§6) CSA-44 (120 mg) or cephapirin sodium (200 mg) was administered as an intramammary infusion three times or two times, respectively, at a 24-hour interval beginning on the day of enrollment (Day 0). Cows assigned to the control group were left untreated. […]. Cows in their second or greater lactation, with an elevated somatic cell count (SCC) and either a positive milk culture for a mastitis pathogen or signs of clinical mastitis were assigned to one of three treatment groups. A quarter was considered cured if there were no clinical signs of mastitis, visibly normal milk, and a negative milk culture 11 days post-treatment. Using these criteria, cure rates for all mastitis cases were 28.0% (Control-0 mg), 63.0% (cephapirin sodium, 200 mg), and 75.0% (CSA-44, 120 mg).
Test data for gram positive bacteria are set forth in Table 1 below and graphically illustrated in FIG. 2A.

The test system of a further series is gram negative bacteria. In words: CSA-44/saline formulation study, intramammary treatment of clinical mastitis, gram negative. The class given is in vivo, lactating dairy cattle. The settings on record: CSA-44 120 mg x3 or cephapirin sodium 200 mg x2 intramammary, 11 days post-treatment. The method, then:
as §1, §2, §3, §4, §5, §6
Test data for gram negative bacteria are set forth in Table 2 below and graphically illustrated in FIG. 2B.

Series [2] has as its system combined gram positive and gram negative bacteria. Kind of series: CSA-44/saline formulation study, intramammary treatment of clinical mastitis, all cases. The class given is in vivo, lactating dairy cattle. To be noted: for cure rate for all mastitis cases: CSA-44 120 mg three times or cephapirin sodium 200 mg two times, intramammary, 24-hour interval, cured = no clinical signs, visibly normal milk, negative milk culture 11 days post-treatment; for % Cure / Cure (number) / Not Cure (number): combined gram positive and gram negative, CSA-44 120 mg x3 or cephapirin sodium 200 mg x2 intramammary, 11 days post-treatment. The procedure:
as §1, §2, §3, §4, §5, §6
Test data for combined gram positive and gram negative bacteria are set forth in Table 3 below and graphically illustrated in FIG. 2C.

Series [3] is described as follows: Animal safety: udder irritation after intramammary infusion of CSA-44 sterile saline suspension. The class given is in vivo, lactating female Holstein dairy cattle. To be noted: 120 mg. The method, then: The purpose of this example was to study the effects on dairy cows relative to udder irritation of intramammary infusion of a sterile formulation of CSA-44 containing either […] of CSA-44 per 10 mL plastet into both front quarters. More particularly, the study evaluated the safety of intramammary infusion of 120 mg, 150 mg and 200 mg CSA-44 hydrochloride sterile saline (0.9% NaCl) suspension, respectively, in each of two front quarters daily for three consecutive days with an approximate 24-hour interval between infusions.
Three lactating female Holstein dairy cattle ranging from 2 to 5 years of age and representing low milk producers (13.2 kg to 24.0 kg/day) and high milk producers (25.0 kg to 31.9 kg/day) were used in the study. Cows were enrolled based on the absence of mastitis pathogens, absence of clinical mastitis (normal strip cup and udder palpation), a somatic cell count (SCC) less than or equal to 200,000 per mL, and no edema or teat lesions.
Within each of the lactation/production subgroups (1st lactation high producers, 1st lactation low producers, ≧2nd lactation high producers, or ≧2nd lactation low producers), cows were assigned to receive either three doses of CSA-44 by intramammary infusion. There were no non-treated controls.
Following a 3-day pre-treatment clinical observation and milk sample collection period, animals received their assigned treatment. Measurements and observations continued during the treatment period and through Day 3 (60 hours) post treatment.
A CSA-44 sterile saline suspension (120 mg, 150 mg, or 200 mg) was administered as an intramammary infusion into both front quarters once at a 24-hour interval for three consecutive days. The following clinical and production measures were evaluated for a total of either 14 milkings: appearance of foremilk (strip cup evaluation), physical condition of udder, milk production, and general health.

Series [4] can be described thus: Human food safety: total residue study of CSA-44 in bovine milk by HPLC with MS detection. The class given is in vivo, lactating Holstein cows. The settings on record: predicted; intramammary 120, 150 or 200 mg daily for three days. The text has this:
The objective of this study was to validate a method for the determination of CSA-44 in bovine milk by HPLC with MS detection. The protocol has been designed to fulfill the requirements outlined in the FDA/CVM Guidance for Industry #208^1. ^1Guidance for Industry #208: Studies to Evaluate the Metabolism and Residue Kinetics of Veterinary Drugs in Food-Producing Animals: Validation of Analytical Methods used in Residue Depletion Studies. VICH GL49. U.S. Department of Health and Human Services, Food and Drug Administration, Center for Veterinary Medicine. Sep. 15, 2011
A GLP-compliant total residue study was conducted in 3 healthy, lactating Holstein cows. Cows tested were in the middle of their 2nd or 3rd lactation. The more specific objective was to evaluate the safety of intramammary infusion of 120, 150 and 200 mg dosages of CSA-44 hydrochloride sterile saline (0.9% NaCl) suspension, respectively, in each of two front quarters daily for three consecutive days with an approximate 24-hour interval between infusions.
Three lactating female Holstein dairy cattle ranging from 2 to 5 years of age and representing low milk producers (13.2 kg to 24.0 kg/day) and high milk producers (25.0 kg to 31.9 kg/day) were used in the study. […]

Another series deals with Escherichia coli. In words: Dose characterization study, CSA-44/propylene glycol formulation, intramammary treatment of clinical mastitis. The class given is in vivo, lactating dairy cows. The settings on record: 60 mg CSA-44 per quarter, infused eight to ten times at 12-hour interval; cured = no clinical signs 10 days post-treatment, milk visibly normal, SCC < 350,000 cells. The procedure: (§7) A first dose characterization study was conducted using CSA-44 hydrochloride with and without propylene glycol based in the formulation. This study enabled the selection of a dose to be used in a dose confirmation (field) study, which was conducted using two propylene glycol formulations and 60 mg of CSA-44 hydrochloride per 10 ml syringe.
(§8) The objective of this study was to evaluate the effectiveness of intramammary administered CSA-44, with and without propylene glycol as part of the formulation, for the treatment of clinical mastitis in lactating dairy cows.
(§9) A total of 42 cow quarters from Blue Star Dairy (BSD) were enrolled. Cows in their second or greater lactation, with an elevated somatic cell count (SCC) and either a positive milk culture for a mastitis pathogen or signs of clinical mastitis were assigned to one of two treatment groups: 1) ceftiofur hydrochloride administered 2-7 times, per label directions; and 2) 60 mg of CSA-44 per quarter, cows were infused eight to ten times at a 12-hour interval. A quarter was considered cured if there were no clinical signs of mastitis 10 days post-treatment, milk was visibly normal, and somatic cell count (SCC) was less than 350,000 cells. Using these criteria, cure rates for Group CSA treated cows were 87% for Staph. spp. (CNS and Staph. aureus), 90% for Escherichia coli, and 78% for Strep spp. (Streptococcus dysgalactiae, Strep. uberis, and Streptococcus sp).

Series [5] relates to Strep spp. (Streptococcus dysgalactiae, Strep. uberis, and Streptococcus sp). The series is described as above. The class given is in vivo, lactating dairy cows. The settings on record: 60 mg CSA-44 per quarter, infused eight to ten times at 12-hour interval; cured = no clinical signs 10 days post-treatment, milk visibly normal, SCC < 350,000 cells. The method, then:
as §7, §8, §9

Series [6] relates to Staph. spp. (CNS and Staph. aureus). The series is described as above. The class given is in vivo, lactating dairy cows. The settings on record: 60 mg CSA-44 per quarter, infused eight to ten times at 12-hour interval; cured = no clinical signs 10 days post-treatment, milk visibly normal, SCC < 350,000 cells. The procedure:
as §7, §8, §9

The mark [7] stands for this setting: 150 mg or 200 mg in sterile saline, intramammary into both front quarters, once daily for three consecutive days.

For `CO/N=C(\C(=O)N[C@@H]1C(=O)N2C(C(=O)O)=C(CSC(=O)c3ccco3)CS[C@H]12)c1csc(N)n1` [Ceftiofur HCl, ceftiofur hydrochloride], in series [1], the “% Cure” value is recorded as 70%, the “Cure (number)” value is 38 and the “Not Cure (number)” value is listed as 16.

Consider `CC(=O)OCC1=C(C(=O)O)N2C(=O)[C@@H](NC(=O)CSc3ccncc3)[C@H]2SC1` [Cephapirin Sodium, cephapirin sodium, reference compound], for which, in the series with gram positive bacteria, the “% Cure” value stood at 62%, the “Cure (number)” value is reported as 21 and the “Not Cure (number)” value turned out to be 13. For the same molecule, in the series with gram negative bacteria, the “% Cure” value is reported as 61%, the “Cure (number)” value is 11 and the “Not Cure (number)” value stood at 7. Moreover, in series [2], the “cure rate for all mastitis cases” value is recorded as 63.0%, the “% Cure” value came to 62%, the “Cure (number)” value stood at 32 and the “Not Cure (number)” value stood at 20.

With `CCCCCCCCOC(=O)CC[C@@H](C)[C@H]1CC[C@H]2[C@@H]3[C@H](OC(=O)CCN)C[C@@H]4C[C@H](OC(=O)CCN)CC[C@]4(C)[C@H]3C[C@H](OC(=O)CCN)[C@]12C` [CSA-44], in the series with gram positive bacteria, the “% Cure” value was 70%, the “Cure (number)” value turned out to be 29 and the “Not Cure (number)” value is 12. In [3] (setting [7]), the “milk quality appearance and strip cup response during treatment” value was “no change in milk quality”; the “udder physical condition scores, strip cup analyses, milk production (milk weight and percent milk fat) in response to treatment” value is “no overall differences”. In [3] (sterile saline formulation, 150 mg or 200 mg per 10 mL dose, infused once daily for up to three consecutive days), the “clinical safety and irritation of mammary tissue” value was “clinically safe and not irritating to the mammary tissue”. Moreover, in the series on gram negative bacteria, the “% Cure” value is 84%, the “Cure (number)” value is recorded as 16 and the “Not Cure (number)” value is 3. For the same molecule, in series [4], the “time until CSA-44 is undetectable in milk” value was 60 to 72 h and the “time until residues in the milk are substantially depleted” value is 24 to 48 h. The cure rate in the series with Escherichia coli was determined as 90%. In series [5], this molecule registered a cure rate of 78%. The same molecule showed a cure rate in series [6] of 87%. For the same molecule, in [2], the “cure rate for all mastitis cases” value stood at 75.0%, the “% Cure” value was found to be 75%, the “Cure (number)” value amounted to 45 and the “Not Cure (number)” value is listed as 15.
